Assay results taken from US8785614B2, “Aberrantly methylated genes in pancreatic cancer” (The Johns Hopkins University, priority 2003, dated 2014).
Read-outs that look alike come from different tables or passages of the source.

Assays:
[1] = tested on: Panc1 pancreatic cancer cell line
Description: Mock-treated cells were cultured with the equivalent volume of PBS alone.
(§1) Total RNA was isolated from cultured cells using TRIZOL reagent (invitrogen, Carlsbad, Calif.) and purified using RNeasy Mini Kit (Qiagen, Valencia, Calif.). First- and second-stranded cDNA was synthesized from 10 μg of total RNA using 17-dT) primer (Genset Corp., La Jolla, Calif.) and Superscript Choice system (Invitrogen). Labeled cRNA was synthesized from the purified cDNA by in vitro transcription reaction using the BioArray High Yield RNA Transcript Labeling Kit (Enzo Diagnostics, Inc., Farmingdale, N.Y.) at 37° C. for 6 h. The cRNA was fragmented at 94° C. for 35 min. in a fragmentation buffer [40 mM Tris-acetate @ pH 8.1, 100 mM potassium acestate, and 30 mM magnesium acetate]. The fragmented cRNA was then hybridized to the Human Genome U133A chips (Affymetrix, Santa Clara, Calif.) with 18462 unique gene/EST transcripts at 45° C. for 16 h. The washing and staining procedure was performed in the Affymetrix Fluidics Station according to the manufacturer's instructions. The probes were then scanned using a laser scanner, and signal intensity for each transcript (background-subtracted and adjusted for noise) was calculated using Microarray Suite Software 5.0 (Affymetrix).
(§2) Fold change analysis of signal intensities obtained from oligonucleotide microarrays between the two treatment groups was performed using Data Mining software (Afrymetrix).
The global changes in gene expression proxies induced by 5Aza-dC in four pancreatic cancer cell lines (AsPCl, Hs766T, MiaPaCa2, and Panel) were determined using the Afrymetrix U133 oligonucleotide microarrays with 18462 probes sets (transcripts) covering over 13000 full-length sequences of known genes.

[2] = tested on: nonneoplastic ductal cell line HPDE
Description: as §1, §2

## Nc1ncn([C@H]2C[C@H](O)[C@@H](CO)O2)c(=O)n1 [5Aza-dC, 5 aza 2′ deoxycytidine]
[1]; ANGPT2, Panc1
  Fold-change after 5Aza-dC treatment: 0.91 fold
[1]; BARD1, Panc1
  Fold-change after 5Aza-dC treatment: −1.01 fold
[1]; BNIP3, Panc1
  Fold-change after 5Aza-dC treatment: −1.07 fold
[1]; BST2, Panc1
  Fold-change after 5Aza-dC treatment: −1.04 fold
[1]; CACNA1G, Panc1
  Fold-change after 5Aza-dC treatment: 5.26 fold
[1]; CCNE2, Panc1
  Fold-change after 5Aza-dC treatment: 1.52 fold
[1]; CDH3, Panc1
  Fold-change after 5Aza-dC treatment: 2.31 fold
[1]; CDKN1A (p21), Panc1
  Fold-change after 5Aza-dC treatment: 1.93 fold
[1]; CDKN1C, Panc1
  Fold-change after 5Aza-dC treatment: 3.77 fold
[1]; CLDN5, Panc1
  Fold-change after 5Aza-dC treatment: 1.88 fold
[1]; CSF1, Panc1
  Fold-change after 5Aza-dC treatment: −1.91 fold
[1]; FOXE1, Panc1
  Fold-change after 5Aza-dC treatment: 1.7 fold
[1]; GAGE1, Panc1
  Fold-change after 5Aza-dC treatment: 0.46 fold
[1]; GAGE3, Panc1
  Fold-change after 5Aza-dC treatment: 9.78 fold
[1]; GAGE4, Panc1
  Fold-change after 5Aza-dC treatment: 35.44 fold
[1]; GAGE6, Panc1
  Fold-change after 5Aza-dC treatment: 35.5 fold
[1]; GAGE7, Panc1
  Fold-change after 5Aza-dC treatment: 36.1 fold
[1]; HOXA1, Panc1
  Fold-change after 5Aza-dC treatment: 1.26 fold
[1]; IGF2, Panc1
  Fold-change after 5Aza-dC treatment: 9.41 fold
[1]; IL1R1, Panc1
  Fold-change after 5Aza-dC treatment: 1.37 fold
[1]; ISG20, Panc1
  Fold-change after 5Aza-dC treatment: −0.84 fold
[1]; JPH3, Panc1
  Fold-change after 5Aza-dC treatment: −4.18 fold
[1]; KLK10, Panc1
  Fold-change after 5Aza-dC treatment: −1.05 fold
[1]; LDOC1, Panc1
  Fold-change after 5Aza-dC treatment: 9.19 fold
[1]; LHX1, Panc1
  Fold-change after 5Aza-dC treatment: 1.79 fold
[1]; MAGE1, Panc1
  Fold-change after 5Aza-dC treatment: 7.32 fold
[1]; MATN1, Panc1
  Fold-change after 5Aza-dC treatment: 3.61 fold
[1]; NEFH, Panc1
  Fold-change after 5Aza-dC treatment: 4.59 fold
[1]; NPTX2, Panc1
  Fold-change after 5Aza-dC treatment: 18.94 fold
[1]; PAX6, Panc1
  Fold-change after 5Aza-dC treatment: 4.45 fold
[1]; PDYN, Panc1
  Fold-change after 5Aza-dC treatment: 4.84 fold
[1]; PLAT, Panc1
  Fold-change after 5Aza-dC treatment: 2.13 fold
[1]; PLEK2, Panc1
  Fold-change after 5Aza-dC treatment: 1.08 fold
[1]; Panc1
  transcripts with >5-fold increase, share of the 18462 transcripts analyzed: 0.6%
[1]; Panc1, vs mock-treated
  transcripts with substantial increase (>5-fold) in signal intensities: 116 transcripts
[1]; SARP2, Panc1
  Fold-change after 5Aza-dC treatment: −1.47 fold
[1]; SMARCA1, Panc1
  Fold-change after 5Aza-dC treatment: 1.01 fold
[1]; ST14, Panc1
  Fold-change after 5Aza-dC treatment: 5.1 fold
[1]; TIMP3, Panc1
  Fold-change after 5Aza-dC treatment: 1.1 fold
[1]; TJP2, Panc1
  Fold-change after 5Aza-dC treatment: 1.49 fold
[1]; TNF, Panc1
  Fold-change after 5Aza-dC treatment: 1.18 fold
[1]; UCHL1, Panc1
  Fold-change after 5Aza-dC treatment: 2.37 fold
[1]; WNT7A, Panc1
  Fold-change after 5Aza-dC treatment: 3.57 fold
[1]; XAGE-1, Panc1
  Fold-change after 5Aza-dC treatment: 24.78 fold
[1]; granulocytemacrophage colony-stimulating factor (M11734), Panc1
  Fold-change after 5Aza-dC treatment: 2.17 fold
[1]; interferon, alpha-inducible protein (NM_022873), Panc1
  Fold-change after 5Aza-dC treatment: 1.2 fold
[1]; p53-induced protein (PIGII), Panc1
  Fold-change after 5Aza-dC treatment: 1.04 fold
[1]; reprimo, Panc1
  Fold-change after 5Aza-dC treatment: 1.03 fold
[1]; stratifin (14-3-3 sigma), Panc1
  Fold-change after 5Aza-dC treatment: 1.21 fold
[1]; stromal antigen 3 (STAG5), Panc1
  Fold-change after 5Aza-dC treatment: 6.84 fold
[1]; testin, Panc1
  Fold-change after 5Aza-dC treatment: 1.57 fold
[2]; ANGPT2, HPDE
  Fold-change after 5Aza-dC treatment: −0.4 fold
[2]; BARD1, HPDE
  Fold-change after 5Aza-dC treatment: 2.23 fold
[2]; BNIP3, HPDE
  Fold-change after 5Aza-dC treatment: 1.23 fold
[2]; BST2, HPDE
  Fold-change after 5Aza-dC treatment: −1.06 fold
[2]; CACNA1G, HPDE
  Fold-change after 5Aza-dC treatment: 0.39 fold
[2]; CCNE2, HPDE
  Fold-change after 5Aza-dC treatment: 1.5 fold
[2]; CDH3, HPDE
  Fold-change after 5Aza-dC treatment: −1.08 fold
[2]; CDKN1A (p21), HPDE
  Fold-change after 5Aza-dC treatment: 1.33 fold
[2]; CDKN1C, HPDE
  Fold-change after 5Aza-dC treatment: 1.07 fold
[2]; CLDN5, HPDE
  Fold-change after 5Aza-dC treatment: 2.45 fold
[2]; CSF1, HPDE
  Fold-change after 5Aza-dC treatment: −1.03 fold
[2]; DR3, HPDE
  Fold-change after 5Aza-dC treatment: 1.01 fold
[2]; FOXE1, HPDE
  Fold-change after 5Aza-dC treatment: −1.1 fold
[2]; GAGE1, HPDE
  Fold-change after 5Aza-dC treatment: −0.55 fold
[2]; GAGE3, HPDE
  Fold-change after 5Aza-dC treatment: 1.33 fold
[2]; GAGE4, HPDE
  Fold-change after 5Aza-dC treatment: 3.33 fold
[2]; GAGE6, HPDE
  Fold-change after 5Aza-dC treatment: 2.41 fold
[2]; GAGE7, HPDE
  Fold-change after 5Aza-dC treatment: 3.36 fold
[2]; HOXA1, HPDE
  Fold-change after 5Aza-dC treatment: −1.23 fold
[2]; HPDE
  transcripts induced, share of transcripts analyzed: 0.5%
  transcripts whose expression was induced after drug treatment: 101 transcripts
[2]; IGF2, HPDE
  Fold-change after 5Aza-dC treatment: −0.34 fold
[2]; IL1R1, HPDE
  Fold-change after 5Aza-dC treatment: −1.81 fold
[2]; ISG20, HPDE
  Fold-change after 5Aza-dC treatment: 0.89 fold
[2]; JPH3, HPDE
  Fold-change after 5Aza-dC treatment: 2.14 fold
[2]; KLK10, HPDE
  Fold-change after 5Aza-dC treatment: 3.75 fold
[2]; LDOC1, HPDE
  Fold-change after 5Aza-dC treatment: −1.12 fold
[2]; LHX1, HPDE
  Fold-change after 5Aza-dC treatment: 1.01 fold
[2]; MAGE1, HPDE
  Fold-change after 5Aza-dC treatment: 1.7 fold
[2]; MATN1, HPDE
  Fold-change after 5Aza-dC treatment: −125 fold
[2]; NEFH, HPDE
  Fold-change after 5Aza-dC treatment: −1.08 fold
[2]; NPTX2, HPDE
  Fold-change after 5Aza-dC treatment: 2.42 fold
[2]; PAX6, HPDE
  Fold-change after 5Aza-dC treatment: 2.57 fold
[2]; PDYN, HPDE
  Fold-change after 5Aza-dC treatment: −1.04 fold
[2]; PLAT, HPDE
  Fold-change after 5Aza-dC treatment: 4.9 fold
[2]; PLEK2, HPDE
  Fold-change after 5Aza-dC treatment: 1.2 fold
[2]; SARP2, HPDE
  Fold-change after 5Aza-dC treatment: 1.11 fold
[2]; SMARCA1, HPDE
  Fold-change after 5Aza-dC treatment: 3.54 fold
[2]; ST14, HPDE
  Fold-change after 5Aza-dC treatment: −1.05 fold
[2]; TIMP3, HPDE
  Fold-change after 5Aza-dC treatment: 1.32 fold
[2]; TJP2, HPDE
  Fold-change after 5Aza-dC treatment: 1.41 fold
[2]; TNF, HPDE
  Fold-change after 5Aza-dC treatment: −1.2 fold
[2]; UCHL1, HPDE
  Fold-change after 5Aza-dC treatment: 1.95 fold
[2]; WNT7A, HPDE
  Fold-change after 5Aza-dC treatment: −1.23 fold
[2]; XAGE-1, HPDE
  Fold-change after 5Aza-dC treatment: −0.43 fold
[2]; granulocytemacrophage colony-stimulating factor (M11734), HPDE
  Fold-change after 5Aza-dC treatment: −0.94 fold
[2]; interferon, alpha-inducible protein (NM_022873), HPDE
  Fold-change after 5Aza-dC treatment: 1.33 fold
[2]; p53-induced protein (PIGII), HPDE
  Fold-change after 5Aza-dC treatment: −1.58 fold
[2]; reprimo, HPDE
  Fold-change after 5Aza-dC treatment: 1.06 fold
[2]; stratifin (14-3-3 sigma), HPDE
  Fold-change after 5Aza-dC treatment: −1.46 fold
[2]; stromal antigen 3 (STAG5), HPDE
  Fold-change after 5Aza-dC treatment: 4.8 fold
[2]; testin, HPDE
  Fold-change after 5Aza-dC treatment: 1.09 fold
